Assay results published in patent US20260008770A1, “CBL-B INHIBITORS AND METHODS OF USES THEREOF” (Insilico Medicine IP Limited, priority 2022, published 2026).
Read-outs that look alike come from different tables or passages of the source.

Biological target: Cbl-b protein (CBL-B, GST-Tag) (Homo sapiens (Human), UniProt Q13191)
Test: HTRF based binding assay, affinity to Cbl-b protein
[1] = HTRF binding, CBL-B (GST-Tag), fluorescence labeled Cbl-b binding probe

Cbl-b protein (CBL-B, GST-Tag), sequence (Q13191 whole entry): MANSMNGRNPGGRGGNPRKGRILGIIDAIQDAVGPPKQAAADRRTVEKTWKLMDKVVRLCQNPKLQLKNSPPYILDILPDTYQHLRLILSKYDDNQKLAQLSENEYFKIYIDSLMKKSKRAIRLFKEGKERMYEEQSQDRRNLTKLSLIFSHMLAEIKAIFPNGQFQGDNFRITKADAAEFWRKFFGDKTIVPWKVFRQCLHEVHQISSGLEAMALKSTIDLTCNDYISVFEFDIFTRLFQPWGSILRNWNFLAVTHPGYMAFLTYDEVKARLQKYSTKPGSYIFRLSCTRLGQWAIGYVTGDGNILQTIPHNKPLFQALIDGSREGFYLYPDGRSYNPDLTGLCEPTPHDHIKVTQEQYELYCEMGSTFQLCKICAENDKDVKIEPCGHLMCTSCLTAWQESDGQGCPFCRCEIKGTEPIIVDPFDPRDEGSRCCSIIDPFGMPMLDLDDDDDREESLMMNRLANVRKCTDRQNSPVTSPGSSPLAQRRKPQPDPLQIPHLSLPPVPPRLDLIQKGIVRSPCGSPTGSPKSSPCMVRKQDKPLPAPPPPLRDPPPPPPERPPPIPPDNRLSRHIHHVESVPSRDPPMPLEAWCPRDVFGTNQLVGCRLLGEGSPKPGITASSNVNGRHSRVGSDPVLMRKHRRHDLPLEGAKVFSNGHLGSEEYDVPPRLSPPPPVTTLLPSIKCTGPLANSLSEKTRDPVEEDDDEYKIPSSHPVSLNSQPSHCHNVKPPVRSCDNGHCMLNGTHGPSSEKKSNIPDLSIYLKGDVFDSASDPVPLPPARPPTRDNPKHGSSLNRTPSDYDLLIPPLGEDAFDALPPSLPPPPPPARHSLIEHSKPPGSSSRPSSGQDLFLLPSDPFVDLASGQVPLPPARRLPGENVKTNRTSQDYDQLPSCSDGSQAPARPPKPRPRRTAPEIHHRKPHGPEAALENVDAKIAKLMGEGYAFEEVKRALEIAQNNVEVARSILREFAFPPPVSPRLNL

SMILES	IC50	IC50 [1]
CNC(=O)c1cc(-n2cc3c(C(F)(F)F)cc(CN4CCC[C@H](C)C4)cc3n2)cc(C2(c3nncn3C)CC(C)C2)c1 (stereo partly shown) [Example 43]	50 to 500 nM	
CC1CC(c2cccc(NC(=O)c3cc(CN4CCC[C@H](C)C4)cc4c3OCCC4(F)F)c2)(c2nncn2C)C1 (stereo partly shown) [Example 24]		< 20 nM
CC1CC(c2cc(F)nc(-n3cnc4c(C(F)(F)F)cc(CN5CCC[C@H](C)C5)cc4c3=O)c2)(c2nncn2C)C1 (stereo partly shown) [Example 44]	20 to 50 nM	
CC1CC(c2cccc(-c3nc4cc(CN5CCC[C@H](C)C5)cc(C(F)(F)F)c4[nH]3)c2)(c2nncn2C)C1 (stereo partly shown) [Example 17]	50 to 500 nM	
C[C@H]1CCCN(Cc2cc(C(F)(F)F)c3ncn(-c4cc([C@]5(c6nncn6C)C[C@@H](CF)C5)ccn4)c(=O)c3c2)C1 [Example 114]	20 to 50 nM	
CC1CC(c2cccc(-n3ncc4c(C(F)(F)F)cc(CN5CCC(F)(F)[C@@H](C)C5)cc4c3=O)c2)(c2nncn2C)C1 (stereo partly shown) [Example 15]		> 1000 nM
CC1=CCCN(Cc2cc(C(F)(F)F)c3cn(-c4cccc(C5(c6nncn6C)CC(C)C5)c4)nc3c2)C1 (stereo not shown) [Example 79]	20 to 50 nM	
C[C@H]1CCCN(Cc2cc(C(F)(F)F)c3cn(-c4cccc(C5(Cc6nncn6C)COC5)c4)nc3c2)C1 [Example 88]		< 20 nM
CC1CC(c2cccc(-n3cnc4c(C(F)(F)F)cc(CN5CCC[C@H](C)C5)cc4c3=O)c2)(c2nncn2C)C1 (stereo partly shown) [Example 84]		< 20 nM
C#CCC1CC(c2cccc(-n3cc4c(C(F)(F)F)cc(CN5CCC[C@H](C)C5)cc4n3)c2)(c2nncn2C)C1 (stereo partly shown) [Example 66]	20 to 50 nM	
C[C@H]1CCCN(Cc2cc(C(=O)Nc3cccc([C@@H](c4nncn4C)C4COC4)c3)cc(C(F)(F)F)c2)C1 [Example 26]		> 1000 nM
C[C@H]1CCCN(Cc2cc(C(F)(F)F)c3ncn(-c4cc([C@]5(c6nncn6C6CCC6)C[C@@H](C)C5)ccn4)c(=O)c3c2)C1 [Example 110]	50 to 500 nM	
CC1CC(c2cc(C(N)=O)cc(-n3cc4c(C(F)(F)F)cc(CN5CCC[C@H](C)C5)cc4n3)c2)(c2nncn2C)C1 (stereo partly shown) [Example 52]		< 20 nM
CC1CC(c2cccc(-c3n[nH]c4c(CN5CCC[C@H](C)C5)cc(C(F)(F)F)nc34)c2)(c2nncn2C)C1 (stereo partly drawn) [Example 5, (S)-3-(3-(3-methyl-1-(4-methyl-4H-1,2,4-triazol-3-yl)cyclobutyl)phenyl)-7-((3-methylpiperidin-1-yl)methyl)-5-(trifluoromethyl)-1H-pyrazolo[4,3-b]pyridine]	50 to 500 nM	
C#C[C@H]1CCCN(Cc2cc(C(F)(F)F)c3cn(-c4cccc([C@]5(c6nncn6C)C[C@@H](C)C5)c4)nc3c2)C1 [Example 56]		< 20 nM
C[C@H]1CCCN(Cc2cc(C(F)(F)F)c3cnn(-c4cccc([C@@H](c5nncn5C)C5CCC5)c4)c(=O)c3c2)C1 [Example 18]		> 1000 nM
CC1CC(c2cc(C3CC3)nc(-n3cnc4c(C(F)(F)F)cc(CN5CCC[C@H](C)C5)cc4c3=O)c2)(c2nncn2C)C1 (stereo partly shown) [Example 47]		< 20 nM
CCc1cc([C@]2(c3nncn3C)C[C@@H](C)C2)cc(-n2cnc3ccc(CN4CCC[C@H](C)C4)cc3c2=O)n1 [Example 93]	20 to 50 nM	
Cn1cnnc1[C@]1(c2cccc(-n3cc4c(C(F)(F)F)cc(CN5CCOC6(CCC6)C5)cc4n3)c2)C[C@H](C)C1 [Example 40]	50 to 500 nM	
C=C(F)c1cc([C@]2(c3nncn3C)C[C@@H](C)C2)cc(-n2cnc3c(C(F)(F)F)cc(CN4CCC[C@H](C)C4)cc3c2=O)n1 [Example 107]		< 20 nM
COc1cc([C@]2(c3nncn3C)C[C@@H](C)C2)cc(-n2cnc3c(C(F)(F)F)cc(CN4CCC[C@H](C)C4)cc3c2=O)n1 [Example 115]		< 20 nM
Cn1cnnc1CC1(c2cccc(-n3cc4c(C(F)(F)F)cc(CN5CCC[C@H](C6CC6)C5)cc4n3)c2)COC1 [Example 64]		< 20 nM
CC1CN(Cc2cc(C(F)(F)F)c3ncn(-c4cc([C@]5(c6nncn6C)C[C@@H](C)C5)cc(OCF)n4)c(=O)c3c2)CCC1(F)F (stereo partly shown) [Example 109]		< 20 nM
CC1CC(c2cc(Cl)nc(-n3cnc4c(C(F)(F)F)cc(CN5CCC[C@H](C)C5)cc4c3=O)c2)(c2nncn2C)C1 (stereo partly shown) [Example 41]	20 to 50 nM	
C#Cc1cc([C@]2(c3nncn3C)C[C@@H](C)C2)cc(-n2cnc3ccc(CN4CCC[C@H](C)C4)cc3c2=O)n1 [Example 97]	50 to 500 nM	
C[C@H]1CCCN(Cc2cc(F)c3ncn(-c4cc([C@]5(c6nncn6C)C[C@@H](C)C5)cc(OCF)n4)c(=O)c3c2)C1 [Example 111]		< 20 nM
C[C@H]1CCCN(Cc2ccc3ncn(-c4cc([C@]5(c6nncn6C)C[C@@H](C)C5)cc(OCF)n4)c(=O)c3c2)C1 [Example 112]		< 20 nM
C[C@H]1CCCN(Cc2cc(C(F)(F)F)c3cn(-c4cc([C@]5(c6nncn6C)C[C@@H](C)C5)ccn4)nc3c2)C1 (single isomer, unassigned) [Example 58]	20 to 50 nM	
